Like-named read-outs stand apart in the source and are kept apart here. Marks after values point to notes of the source that are not given here.
Assays:
[1] = tested on: patients with metastatic RCC with sarcomatoid histology; assay: IMmotion151 subgroup analysis: efficacy in patients whose tumors had sarcomatoid histology; format: in vivo, human; conditions: for Median OS: clinical cutoff Aug. 13, 2018; for Confirmed INV-assessed ORR / Median INV-assessed PFS: clinical cutoff Sep. 29, 2017
Source text: Sarcomatoid renal carcinoma was defined as any histologic type of renal cell carcinoma containing a focus/foci of high-grade malignant spindle cells of any component relative to the entire tumor area. Such a classification required evidence of epithelial differentiation with concurrent areas of renal cell carcinoma or evidence of epithelial differentiation in the spindle cells with immunohistochemical positivity for keratin or epithelial membrane antigen (EMA). Frequent patterns include fibrosarcoma, malignant fibrous histiocytoma, and rhabdomyosarcoma. Focal spindling due to noncohesion of tumor cells was not considered to represent sarcomatoid differentiation. Any spindle component relative to the entire tumor area was sufficient. The degree of sarcomatoid differentiation was recorded as 1) any component, 2) >20% component, or 3) predominant sarcomatoid component.
(§1) IMmotion151 is a multicenter, randomized, open-label, Phase III study evaluating the efficacy and safety of atezolizumab+bevacizumab vs those of sunitinib in patients with previously untreated, inoperable, locally advanced or metastatic RCC (FIG. 1). The co-primary endpoints were (i) investigator (INV)-assessed progression-free survival (PFS) in patients with ≥1% IC expressing PD-L1 (PD-L1+) and (ii) interim overall survival (OS) in the intent-to-treat (ITT) population. Secondary endpoints inclue INV-assessed PFS and OS in patients with sarcomatoid histology and are reported here with INV-assessed objective response rate (ORR), safety, patient-reported outcomes (PROs) of symptoms and function and biomarker evaluation.
Patients were included in this subgroup analysis if their tumor had any component of sarcomatoid histology, referred to in this presentation as “All Sarc,” as reported by the investigator per the local pathology report. P values are for descriptive purposes only. Gene expression analyses of baseline tumor samples were performed as previously described and focused on T-effector and angiogenesis signatures (see, e.g., McDermott et al. Nat. Med. 24:749-757, 2018). The clinical cutoff for PFS, ORR, PRO and safety was Sep. 29, 2017, with a median follow-up of 13 months. The clinical cutoff for OS was Aug. 13, 2018, with a median follow-up of 17 months.

[2] = tested on: patients with inoperable, locally advanced, or metastatic RCC; assay: IMmotion151 Phase III study: efficacy of atezolizumab plus bevacizumab versus sunitinib (ITT and PD-L1+ populations); format: in vivo, human; conditions: investigator-assessed
Source text: The IMmotion151 study (ClinicalTrials.gov Identifier NCT02420821) is a multi-center, randomized, open-label study to evaluate the efficacy and safety of atezolizumab plus bevacizumab versus sunitinib in patients with inoperable, locally advanced, or metastatic RCC who have not received prior systemic active or experimental therapy in either the adjuvant or metastatic setting. The co-primary endpoints of the study were PFS in the PD-L1^+ subgroup, and OS in the ITT population. The exploratory endpoints included biomarker characterization in sarcomatoid tumors and MSKCC risk subgroups, as well as validation of gene signatures from the IMmotion150 study and their association with PFS. […]
as §1, with “Secondary endpoints inclue INV-assessed PFS and OS in patients with sarcomatoid histology and are reported here with INV-assessed objective response rate (ORR), safety, patient-reported outcomes (PROs) of symptoms and function and biomarker evaluation.” left out

[3] = tested on: patients with inoperable, locally advanced, or metastatic RCC; conditions: Rini et al. Lancet 2019, cited from earlier work; for Median OS: clinical cutoff Aug. 13, 2018; for Confirmed INV-assessed ORR / Median INV-assessed PFS: clinical cutoff Sep. 29, 2017
[4] = tested on: patients with untreated metastatic renal cell carcinoma; assay: IMmotion151 PFS analysis in biomarker-evaluable subgroups (Angio and Teff gene signatures, MSKCC risk); format: in vivo, human
Method: The MSKCC (Motzer) criteria used were as follows. The risk factors included 1) a Karnofsky Performance Status (KPS) score <80; 2) a corrected serum calcium >10 mg/dL; 3) an LDH level >1.5 times the upper limit of normal; 4) a hemoglobin level <the lower limit of normal; 5) a time from nephrectomy to systemic therapy of […] (an individual also was scored as having this risk factor if they were initially assessed with metastatic disease or if they have had no nephrectomy). The risk stratification was as follows: individuals having 3 risk factors belong to the poor risk subgroup; individuals having 1 or 2 risk factors belong to the intermediate risk subgroup; and individuals having 0 risk factors belong to the favorable group. For study purposes, systemic therapy was designated as the date of initial study screening. The formula for corrected calcium was Corrected calcium=serum calcium (mg/dL)+0.8 (4 […] serum albumin (g/dL)).
In the phase II IMmotion150 study, gene signatures were identified based on association with clinical outcome. The T-effector (“Teff”) signature included CD8a, IFNG, PRF1, EOMES, and CD274. The Angiogenesis (“Angio”) signature included VEGFA, KDR, ESM1, PECAM1, CD34, and ANGPTL4. […] In the IMmotion151 study, a pre-specified analysis of association with PFS was performed. Unstratified HR and log-rank test were used for PFS analyses in biomarker-evaluable patients. The IMmotion151 transcriptome map confirmed biological subgroups identified in […], including the angiogenesis, immune and antigen presentation (including the Teff signature), and myeloid inflammation subgroups (FIG. 4).

[5] = tested on: safety-evaluable patients with locally advanced or metastatic RCC; assay: IMmotion151 safety (adverse events, AESI); format: in vivo; conditions: for Patients with ≥ 1 event: Adrenal insufficiency, All Grades / Patients with ≥ 1 event: Adrenal insufficiency, Grade 3-4 / Patients with ≥ 1 event: Colitis, All Grades / Patients with ≥ 1 event: Colitis, Grade 3-4 / Patients with ≥ 1 event: Hyperthyroidism, All Grades / Patients with ≥ 1 event: Hyperthyroidism, Grade 3-4 / Patients with ≥ 1 event: Hypothyroidism, All Grades / Patients with ≥ 1 event: Hypothyroidism, Grade 3-4 / Patients with ≥ 1 event: Liver function test abnormalities, All Grades / Patients with ≥ 1 event: Liver function test abnormalities, Grade 3-4 / Patients with ≥ 1 event: Pneumonitis, All Grades / Patients with ≥ 1 event: Pneumonitis, Grade 3-4 / Patients with ≥ 1 event: Rash, All Grades / Patients with ≥ 1 event: Rash, Grade 3-4: AESI; for Patients with ≥ 1 event: Any AESI, All Grades / Patients with ≥ 1 event: Any AESI, Grade 3-4: all treatment-emergent AEs
Method: Patients in the Atezolizumab+Bevacizumab (“Atezo+Bev”) arm received both atezolizumab and bevacizumab until loss of clinical benefit, unacceptable toxicity or symptomatic deterioration attributed to disease progression, withdrawal of consent, or death, whichever occured first. Atezolizumab was administered at a fixed dose of 1200 milligrams (mg) via intravenous (IV) infusion on Days 1 and 22 of each 42-day cycle. Bevacizumab was be administered at a dose of 15 milligrams per kilogram (mg/kg) via IV infusion on Days 1 and 22 of each 42-day cycle. Patients in the sunitinib arm received sunitinib until loss of clinical benefit, unacceptable toxicity or symptomatic deterioration attributed to disease progression, withdrawal of consent, or death, whichever occured first. Sunitinib was administered at a dose of 50 mg once daily, orally via capsule, on Day 1 through Day 28 of each 42-day cycle.
as §1
Patients were included in this subgroup analysis if their tumor had any component of sarcomatoid histology, referred to in this presentation as “All Sarc,” as reported by the investigator per the local pathology report. P values are for descriptive purposes only. […] The clinical cutoff for PFS, ORR, PRO and safety was Sep. […] The clinical cutoff for OS was Aug.

[6] = patients with >20% sarcomatoid component

SMILES: CCN(CC)CCNC(=O)c1c(C)[nH]c(/C=C2\C(=O)Nc3ccc(F)cc32)c1C [Sunitinib, N-[2-(Diethylamino)ethyl]-5-[(Z)-(5-fluoro-2-oxo-1,2-dihydro-3H-indol-3-ylidene)methyl]-2,4-dimethyl-1H-pyrrole-3-carboxamide]
- CR ([1]; All Sarc): 3%
- Ongoing responses ([1]; All Sarc): 3 n
- Median OS ([1]; All Sarc): 15.4 mo
- Confirmed INV-assessed ORR ([1]; All Sarc): 14%
- Median INV-assessed PFS ([1]; All Sarc): 5.3 mo
- CR ([1]; PD-Li + Sarc): 4%
- Ongoing responses ([1]; PD-Li + Sarc): 0 n
- Median OS ([1]; PD-Li + Sarc): 15.0 mo
- Confirmed INV-assessed ORR ([1]; PD-Li + Sarc): 12%
- Median INV-assessed PFS ([1]; PD-Li + Sarc): 5.6 mo
- CR rate [1, 6]: 0%
- ORR [1, 6]: 4%
- overall response rate (ORR) ([1]; patients with sarcomatoid differentiation (Example 1)): 18%
- median PFS ([2]; ITT population): 8.4 months
- median PFS ([2]; PD-L1+ patients): 7.7 months
- CR ([3]; ITT): 2%
- Ongoing responses ([3]; ITT): 90 n
- Median OS ([3]; ITT): 34.9 mo
- Confirmed INV-assessed ORR ([3]; ITT): 33%
- Median INV-assessed PFS ([3]; ITT): 8.4 mo
- CR ([3]; PD-L1 + ITT): 4%
- Ongoing responses ([3]; PD-L1 + ITT): 34 n
- Median OS ([3]; PD-L1 + ITT): 32.7 mo
- Confirmed INV-assessed ORR ([3]; PD-L1 + ITT): 35%
- Median INV-assessed PFS ([3]; PD-L1 + ITT): 7.7 mo
- Teff gene signature and PFS within the treatment arm ([4]; Teff High versus Low within arm, in words): did not differentiate PFS
- PFS in the Angio High subgroup versus the Angio Low subgroup ([4]; within sunitinib arm, in words): improved PFS
- PFS HR (95% CI) for Angiogenesis (High versus Low) ([4]; within treatment arm): 0.59 (0.47, 0.75)
- Treatment-related AEs ([5]; All Safety Evaluable): 96%
- Treatment-related AEs leading to discontinuation of any treatment component ([5]; All Safety Evaluable): 8%
- Treatment-related AEs leading to discontinuation of treatment regimen ([5]; All Safety Evaluable): 8%
- Treatment-related AEs, Grade 3-4 ([5]; All Safety Evaluable): 54%
- Treatment-related deaths ([5]; All Safety Evaluable): 1^e n
- Patients with ≥ 1 event: Adrenal insufficiency, All Grades ([5]; All Safety Evaluable): 0%
- Patients with ≥ 1 event: Adrenal insufficiency, Grade 3-4 ([5]; All Safety Evaluable): 0%
- Patients with ≥ 1 event: Colitis, All Grades ([5]; All Safety Evaluable): <1%
- Patients with ≥ 1 event: Colitis, Grade 3-4 ([5]; All Safety Evaluable): <1%
- Patients with ≥ 1 event: Hyperthyroidism, All Grades ([5]; All Safety Evaluable): 3%
- Patients with ≥ 1 event: Hyperthyroidism, Grade 3-4 ([5]; All Safety Evaluable): 0%
- Patients with ≥ 1 event: Hypothyroidism, All Grades ([5]; All Safety Evaluable): 26%
- Patients with ≥ 1 event: Hypothyroidism, Grade 3-4 ([5]; All Safety Evaluable): <1%
- Patients with ≥ 1 event: Liver function test abnormalities, All Grades ([5]; All Safety Evaluable): 18%
- Patients with ≥ 1 event: Liver function test abnormalities, Grade 3-4 ([5]; All Safety Evaluable): 4%
- Patients with ≥ 1 event: Pneumonitis, All Grades ([5]; All Safety Evaluable): 0%
- Patients with ≥ 1 event: Pneumonitis, Grade 3-4 ([5]; All Safety Evaluable): 0%
- Patients with ≥ 1 event: Rash, All Grades ([5]; All Safety Evaluable): 15%
- Patients with ≥ 1 event: Rash, Grade 3-4 ([5]; All Safety Evaluable): <1%
- Patients with ≥ 1 event: Any AESI, All Grades ([5]; All Safety Evaluable): 72%
- Patients with ≥ 1 event: Any AESI, Grade 3-4 ([5]; All Safety Evaluable): 17%
- Treatment-related AEs ([5]; Sarc Safety Evaluable): 94%
- Treatment-related AEs leading to discontinuation of any treatment component ([5]; Sarc Safety Evaluable): 3%
- Treatment-related AEs leading to discontinuation of treatment regimen ([5]; Sarc Safety Evaluable): 3%
- Treatment-related AEs, Grade 3-4 ([5]; Sarc Safety Evaluable): 49%
- Treatment-related deaths ([5]; Sarc Safety Evaluable): 0 n
- Patients with ≥ 1 event: Adrenal insufficiency, All Grades ([5]; Sarc Safety Evaluable): 0%
- Patients with ≥ 1 event: Adrenal insufficiency, Grade 3-4 ([5]; Sarc Safety Evaluable): 0%
- Patients with ≥ 1 event: Colitis, All Grades ([5]; Sarc Safety Evaluable): 1%
- Patients with ≥ 1 event: Colitis, Grade 3-4 ([5]; Sarc Safety Evaluable): 0%
- Patients with ≥ 1 event: Hyperthyroidism, All Grades ([5]; Sarc Safety Evaluable): 1%
- Patients with ≥ 1 event: Hyperthyroidism, Grade 3-4 ([5]; Sarc Safety Evaluable): 0%
- Patients with ≥ 1 event: Hypothyroidism, All Grades ([5]; Sarc Safety Evaluable): 16%
- Patients with ≥ 1 event: Hypothyroidism, Grade 3-4 ([5]; Sarc Safety Evaluable): 0%
- Patients with ≥ 1 event: Liver function test abnormalities, All Grades ([5]; Sarc Safety Evaluable): 10%
- Patients with ≥ 1 event: Liver function test abnormalities, Grade 3-4 ([5]; Sarc Safety Evaluable): 3%
- Patients with ≥ 1 event: Pneumonitis, All Grades ([5]; Sarc Safety Evaluable): 0%
- Patients with ≥ 1 event: Pneumonitis, Grade 3-4 ([5]; Sarc Safety Evaluable): 0%
- Patients with ≥ 1 event: Rash, All Grades ([5]; Sarc Safety Evaluable): 14%
- Patients with ≥ 1 event: Rash, Grade 3-4 ([5]; Sarc Safety Evaluable): 0%
- Patients with ≥ 1 event: Any AESI, All Grades ([5]; Sarc Safety Evaluable): 66%
- Patients with ≥ 1 event: Any AESI, Grade 3-4 ([5]; Sarc Safety Evaluable): 11%

Source: patent US20210253710A1, “DIAGNOSTIC AND THERAPEUTIC METHODS FOR KIDNEY CANCER” (Genentech, Inc., priority 2018, published 2021)
